Among the data in patent US6110888A, “Substituted phenols as fragrance, flavor and antimicrobial compounds” (Takasago International Corporation, priority 1999, dated 2000) are MIC values, retold here.

The structures appear in SMILES notation. Converted amounts (≈) assume the structure as drawn. Some results are limits rather than exact numbers.

Common to all, as to assay type: cell-based
Test [1] concerns Escherichia coli. Nature of the test: MIC, E. coli (Table 2). To be noted: E. coli strain 11229, gram -, read-out: Anti-Microbial Activity MIC, E. c. Here is the method:
(§1) Anti-Microbial Activity of Examples 1-6 (MIC in μg/mL)
(§2) Antimicrobial activity was evaluated to determine minimal inhibitory concentration ("MIC") and Minimal Bactericidal Concentration ("MBC"). The specific biological testing protocol is published R. Kang et al., "J. Agric. Food Chem.," vol. 40 pp. 2328-2330 (1994), the entirety of which is herein incorporated by reference.

The test system of test [2] is Corynebacterium minutissimum. Nature of the test: MIC, C. minutissimum (Table 1). To be noted: C. minutissimum strain 23348, gram+, read-out: Anti-Microbial Activity MIC, C. m. The protocol: (§3) The anti-microbial activity of Examples 1-6 were evaluated.
as §1, §2

In test [3] the test system is Candida albicans. Nature of the test: MIC, C. albicans (Table 2). To be noted: C. albicans strain 10231, fungi, read-out: Anti-Microbial Activity MIC, C. a. Here is the method: as §1, §2
In test [4] the test system is Staphylococcus epidermidis. The test is described as follows: MIC, S. epidermidis (Table 1). To be noted: S. epidermidis strain 1228, gram+, read-out: Anti-Microbial Activity MIC, S. e. Here is the method: as §3, §1, §2
In test [5] the test system is Corynebacterium xerosis. Nature of the test: MIC, C. xerosis (Table 1). To be noted: C. xerosis strain 373, gram+, read-out: Anti-Microbial Activity MIC, C. x. Here is the method:
as §3, §1, §2

Test [6] relates to Steptococcus mutans. Nature of the test: MIC, S. mutans (Table 1). To be noted: Streptococcus mutans; S. mutans strain 25175, gram+; read-out: Anti-Microbial Activity MIC, S. m. The protocol:
as §3, §1, §2

Test [7] deals with Staphylococcus aureus. Nature of the test: MIC, S. aureus (Table 1). To be noted: S. aureus strain 6535, gram+, read-out: Anti-Microbial Activity MIC, S. a. Here is the method:
as §3, §1, §2

Test [8] deals with Actinomyces neaslundii. Nature of the test: MIC, A. neaslundii (Table 1). To be noted: A. neaslundii strain 19039, gram+, read-out: Anti-Microbial Activity MIC, A. neasl. The protocol:
as §3, §1, §2

Test [9] has as its system Pseudomonas aeruginosa. Nature of the test: MIC, P. aeruginosa (Table 2). To be noted: P. aeruginosa strain 15442, gram -, read-out: Anti-Microbial Activity MIC, P. aerug. Here is the method:
as §1, §2

Test [10] concerns Propionibacterium acnes. The test is described as follows: MIC, P. acnes (Table 1). To be noted: Cutibacterium acnes; P. acnes strain 6919, gram+; read-out: Anti-Microbial Activity MIC, P. acnes. Here is the method: as §3, §1, §2
Test [11] deals with Aspergillus niger. Nature of the test: MIC, A. niger (Table 2). To be noted: A. niger strain 16404, fungi, read-out: Anti-Microbial Activity MIC, A. niger. Here is the method: as §1, §2

A word on the MIC: it is the smallest concentration in the dilution series that meets the test's criterion for growth inhibition. Consider `C=CCc1c(C)ccc(C(C)C)c1O` [Example 1a, Ortho Allyl Thymol], for which the minimal inhibitory concentration (MIC) is > 1000 µg/mL in [1]; 62.5 µg/mL (≈ 328 µM) in test [2]; 125 µg/mL (≈ 657 µM) in test [3]; 62.5 µg/mL (≈ 328 µM) in test [4]; 62.5 µg/mL (≈ 328 µM) in test [5]; 62.5 µg/mL (≈ 328 µM) in test [6]. In addition, the MIC in test [7] was 62.5 µg/mL (≈ 328 µM); in test [8], 62.5 µg/mL (≈ 328 µM); in test [9] it was > 1000 µg/mL; in test [10] it was 62.5 µg/mL (≈ 328 µM); in test [11], 125 µg/mL (≈ 657 µM).
As for `C=CCc1cc(C(C)C)c(O)cc1C` [Example 1b, Para Allyl Thymol], the MIC in [1] was > 1000 µg/mL; in test [2], 62.5 µg/mL (≈ 328 µM); in test [3], 125 µg/mL (≈ 657 µM); in [4], 62.5 µg/mL (≈ 328 µM); in test [5], 62.5 µg/mL (≈ 328 µM); in test [6], 31.2 µg/mL (≈ 164 µM). Also, the MIC in test [7] was 62.5 µg/mL (≈ 328 µM); in test [8] it was 62.5 µg/mL (≈ 328 µM); in test [9] it was > 1000 µg/mL; in test [10] it was 31.2 µg/mL (≈ 164 µM); in test [11] it was 125 µg/mL (≈ 657 µM).
Turning to `C=CCc1c(C(C)C)ccc(C)c1O` [Example 2a, Ortho Allyl Carvacrol], the MIC in test [1] was > 1000 µg/mL; in test [2], 62.5 µg/mL (≈ 328 µM); in [3], 125 µg/mL (≈ 657 µM); in [4], 62.5 µg/mL (≈ 328 µM); in test [5] it was 62.5 µg/mL (≈ 328 µM); in test [6], 62.5 µg/mL (≈ 328 µM). Moreover, the MIC in [7] is 62.5 µg/mL (≈ 328 µM); in test [8], 62.5 µg/mL (≈ 328 µM); in test [9], > 1000 µg/mL; in test [10] it was 31.2 µg/mL (≈ 164 µM); in [11], 125 µg/mL (≈ 657 µM).
For `C=CCc1cc(C)c(O)cc1C(C)C` [Example 2b, Para Allyl Carvacrol], the MIC in test [2] is 62.5 µg/mL (≈ 328 µM); in test [3], 125 µg/mL (≈ 657 µM); in [4], 62.5 µg/mL (≈ 328 µM); in test [5], 62.5 µg/mL (≈ 328 µM); in test [6], 62.5 µg/mL (≈ 328 µM); in test [7], 62.5 µg/mL (≈ 328 µM). The minimum inhibitory concentration (MIC) in [10] is 62.5 µg/mL (≈ 328 µM); in [11], 125 µg/mL (≈ 657 µM).
Take `CCCc1c(C)ccc(C(C)C)c1O` [Example 3a, Ortho Propyl Thymol]: the MIC in test [1] was > 1000 µg/mL; in test [2], 62.5 µg/mL (≈ 325 µM); in [3], 125 µg/mL (≈ 650 µM); in test [4], 62.5 µg/mL (≈ 325 µM); in test [5] it was 62.5 µg/mL (≈ 325 µM); in test [6], 31.2 µg/mL (≈ 163 µM). Moreover, the MIC in test [7] was 62.5 µg/mL (≈ 325 µM); in test [8], 62.5 µg/mL (≈ 325 µM); in [9], > 1000 µg/mL; in [10], 31.2 µg/mL (≈ 163 µM); in test [11] it was 125 µg/mL (≈ 650 µM).
For `CCCc1cc(C(C)C)c(O)cc1C` [Example 3b, Para Propyl Thymol], the MIC in test [1] is > 1000 µg/mL; in [2], 31.2 µg/mL (≈ 163 µM); in test [3], 62.5 µg/mL (≈ 325 µM); in [4], 31.2 µg/mL (≈ 163 µM); in test [5], 31.2 µg/mL (≈ 163 µM); in test [6], 31.2 µg/mL (≈ 163 µM). Also, the MIC in [7] is 31.2 µg/mL (≈ 163 µM); in test [8], 31.2 µg/mL (≈ 163 µM); in test [9] it was > 1000 µg/mL; in test [10], 31.2 µg/mL (≈ 163 µM); in test [11], 125 µg/mL (≈ 650 µM).
With `CCCc1c(C(C)C)ccc(C)c1O` [Example 4a, Ortho Propyl Carvacrol], the MIC was > 1000 µg/mL in test [1]; 31.2 µg/mL (≈ 163 µM) in test [2]; 62.5 µg/mL (≈ 325 µM) in test [3]; 31.2 µg/mL (≈ 163 µM) in [4]; 31.2 µg/mL (≈ 163 µM) in test [5]; 31.2 µg/mL (≈ 163 µM) in test [6]. Besides, the minimal inhibitory concentration (MIC) is 125 µg/mL (≈ 650 µM) in [7]; 31.2 µg/mL (≈ 163 µM) in test [8]; > 1000 µg/mL in test [9]; 31.2 µg/mL (≈ 163 µM) in test [10]; 125 µg/mL (≈ 650 µM) in [11].
